According to paper PMC9571063 (Molecules, 2022):

Legend:
Assay in all cases: KINOMEscan
[1] = biological target: T1, ABL1-phosphorylated (Homo sapiens, UniProt P00519); format: binding; settings: read-out: Percent Control
T1 construct: purchased Eurofins DiscoverX KINOMEscan (scanMAX 468)

[2] = biological target: T2, TAOK1 (Homo sapiens, UniProt Q7L7X3); format: binding; settings: read-out: Percent Control
T2 construct: purchased Eurofins DiscoverX KINOMEscan (scanMAX 468)

[3] = biological target: T3, MAP3K15 (Homo sapiens, UniProt Q6ZN16); format: binding; settings: read-out: Percent Control
T3 construct: purchased Eurofins DiscoverX KINOMEscan (scanMAX 468)

[4] = biological target: T4, RIOK1 (Homo sapiens, UniProt Q9BRS2); format: binding; settings: read-out: Percent Control
T4 construct: purchased Eurofins DiscoverX KINOMEscan (scanMAX 468)

[5] = biological target: T5, DRAK2 (Homo sapiens, UniProt O94768); format: binding; settings: read-out: Percent Control
T5 construct: purchased Eurofins DiscoverX KINOMEscan (scanMAX 468)

[6] = biological target: T6, KIT(A829P) (Homo sapiens, UniProt P10721, A829P); format: binding; settings: read-out: Percent Control
T6 construct: purchased Eurofins DiscoverX KINOMEscan (scanMAX 468)
T6 sequence (P10721 26-976 A829P): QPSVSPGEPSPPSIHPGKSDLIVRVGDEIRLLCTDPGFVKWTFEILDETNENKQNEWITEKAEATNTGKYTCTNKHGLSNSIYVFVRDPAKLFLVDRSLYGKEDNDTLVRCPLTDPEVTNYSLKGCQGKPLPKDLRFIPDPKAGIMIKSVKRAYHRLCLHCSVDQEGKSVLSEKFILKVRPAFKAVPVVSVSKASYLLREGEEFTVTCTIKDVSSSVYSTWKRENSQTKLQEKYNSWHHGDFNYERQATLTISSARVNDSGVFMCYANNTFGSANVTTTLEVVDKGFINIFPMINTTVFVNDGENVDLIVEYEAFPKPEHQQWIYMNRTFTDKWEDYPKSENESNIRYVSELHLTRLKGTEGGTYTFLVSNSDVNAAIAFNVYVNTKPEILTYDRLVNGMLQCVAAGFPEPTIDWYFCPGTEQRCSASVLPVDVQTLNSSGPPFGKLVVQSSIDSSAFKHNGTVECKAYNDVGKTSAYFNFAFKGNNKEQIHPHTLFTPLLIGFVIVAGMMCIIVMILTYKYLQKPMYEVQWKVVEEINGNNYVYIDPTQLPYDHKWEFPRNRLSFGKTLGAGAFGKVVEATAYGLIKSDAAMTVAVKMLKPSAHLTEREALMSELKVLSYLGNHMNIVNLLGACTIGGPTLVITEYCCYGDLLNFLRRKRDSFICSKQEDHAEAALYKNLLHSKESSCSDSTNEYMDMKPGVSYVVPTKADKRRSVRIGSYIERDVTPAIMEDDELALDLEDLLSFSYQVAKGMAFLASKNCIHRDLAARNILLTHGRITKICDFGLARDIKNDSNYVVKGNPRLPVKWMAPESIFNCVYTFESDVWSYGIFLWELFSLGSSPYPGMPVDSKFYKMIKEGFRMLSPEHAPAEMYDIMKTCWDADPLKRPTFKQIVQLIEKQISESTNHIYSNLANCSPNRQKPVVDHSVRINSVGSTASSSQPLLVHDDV

[7] = biological target: T7, MYLK2 (Homo sapiens, UniProt Q9H1R3); format: binding; settings: read-out: Percent Control
T7 construct: purchased Eurofins DiscoverX KINOMEscan (scanMAX 468)

[8] = biological target: T8, CSNK1D (Homo sapiens, UniProt P48730); format: binding; settings: read-out: Percent Control
T8 construct: purchased Eurofins DiscoverX KINOMEscan (scanMAX 468)

[9] = biological target: T9, ABL1(E255K)-phosphorylated (Homo sapiens, UniProt P00519, E255K); format: binding; settings: read-out: Percent Control
T9 construct: purchased Eurofins DiscoverX KINOMEscan (scanMAX 468)

[10] = biological target: T10, CAMK2D (Homo sapiens, UniProt Q13557); format: binding; settings: read-out: Percent Control
T10 construct: purchased Eurofins DiscoverX KINOMEscan (scanMAX 468)
T10 sequence (Q13557 whole entry): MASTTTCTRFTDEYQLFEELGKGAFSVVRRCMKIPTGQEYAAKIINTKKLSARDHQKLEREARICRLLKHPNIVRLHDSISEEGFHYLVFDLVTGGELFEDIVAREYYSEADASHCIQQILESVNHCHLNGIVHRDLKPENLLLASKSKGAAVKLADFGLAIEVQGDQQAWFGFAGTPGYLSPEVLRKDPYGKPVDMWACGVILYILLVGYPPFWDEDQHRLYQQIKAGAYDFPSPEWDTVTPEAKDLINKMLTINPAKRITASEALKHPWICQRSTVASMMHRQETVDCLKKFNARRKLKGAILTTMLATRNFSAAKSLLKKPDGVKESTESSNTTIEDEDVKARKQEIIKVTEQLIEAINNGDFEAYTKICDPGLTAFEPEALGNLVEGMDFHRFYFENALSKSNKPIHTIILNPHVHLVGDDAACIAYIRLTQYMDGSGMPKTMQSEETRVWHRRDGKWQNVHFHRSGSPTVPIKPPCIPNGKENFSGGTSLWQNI

[11] = biological target: T11, MAP4K4 (Homo sapiens, UniProt O95819); format: binding; settings: read-out: Percent Control
T11 construct: purchased Eurofins DiscoverX KINOMEscan (scanMAX 468)

[12] = biological target: T12, MEK6 (Homo sapiens, UniProt P52564); format: binding; settings: read-out: Percent Control
T12 construct: purchased Eurofins DiscoverX KINOMEscan (scanMAX 468)
T12 sequence (P52564 whole entry): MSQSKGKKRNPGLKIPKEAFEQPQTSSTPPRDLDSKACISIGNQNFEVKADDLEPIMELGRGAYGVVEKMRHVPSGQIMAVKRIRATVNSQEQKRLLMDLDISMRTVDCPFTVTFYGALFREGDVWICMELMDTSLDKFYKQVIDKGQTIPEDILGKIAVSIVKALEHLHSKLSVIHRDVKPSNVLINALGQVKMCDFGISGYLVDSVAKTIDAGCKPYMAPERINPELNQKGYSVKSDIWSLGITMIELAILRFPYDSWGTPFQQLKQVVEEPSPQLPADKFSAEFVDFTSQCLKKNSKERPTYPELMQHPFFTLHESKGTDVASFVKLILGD

[13] = biological target: T13, TIE1 (Homo sapiens, UniProt P35590); format: binding; settings: read-out: Percent Control
T13 construct: purchased Eurofins DiscoverX KINOMEscan (scanMAX 468)

[14] = test system: FLT3(ITD,F691L); format: binding, human; settings: 1 μM
[15] = biological target: T14, RET(V804L) (Homo sapiens, UniProt P07949, V804L); format: binding; settings: read-out: Percent Control
T14 construct: purchased Eurofins DiscoverX KINOMEscan (scanMAX 468)

[16] = biological target: T15, TTK (Homo sapiens, UniProt P33981); format: binding; settings: read-out: Percent Control
T15 construct: purchased Eurofins DiscoverX KINOMEscan (scanMAX 468)

[17] = biological target: T16, ACVR1B (Homo sapiens, UniProt P36896); format: binding; settings: read-out: Percent Control
T16 construct: purchased Eurofins DiscoverX KINOMEscan (scanMAX 468)

[18] = biological target: T17, PAK4 (Homo sapiens, UniProt O96013); format: binding; settings: read-out: Percent Control
T17 construct: purchased Eurofins DiscoverX KINOMEscan (scanMAX 468)

[19] = biological target: T18, LRRK2(G2019S) (Homo sapiens, UniProt Q5S007, G2019S); format: binding; settings: read-out: Percent Control
T18 construct: purchased Eurofins DiscoverX KINOMEscan (scanMAX 468)

[20] = biological target: T19, HCK (Homo sapiens, UniProt P08631); format: binding; settings: read-out: Percent Control
T19 construct: purchased Eurofins DiscoverX KINOMEscan (scanMAX 468)
T19 sequence (P08631 whole entry): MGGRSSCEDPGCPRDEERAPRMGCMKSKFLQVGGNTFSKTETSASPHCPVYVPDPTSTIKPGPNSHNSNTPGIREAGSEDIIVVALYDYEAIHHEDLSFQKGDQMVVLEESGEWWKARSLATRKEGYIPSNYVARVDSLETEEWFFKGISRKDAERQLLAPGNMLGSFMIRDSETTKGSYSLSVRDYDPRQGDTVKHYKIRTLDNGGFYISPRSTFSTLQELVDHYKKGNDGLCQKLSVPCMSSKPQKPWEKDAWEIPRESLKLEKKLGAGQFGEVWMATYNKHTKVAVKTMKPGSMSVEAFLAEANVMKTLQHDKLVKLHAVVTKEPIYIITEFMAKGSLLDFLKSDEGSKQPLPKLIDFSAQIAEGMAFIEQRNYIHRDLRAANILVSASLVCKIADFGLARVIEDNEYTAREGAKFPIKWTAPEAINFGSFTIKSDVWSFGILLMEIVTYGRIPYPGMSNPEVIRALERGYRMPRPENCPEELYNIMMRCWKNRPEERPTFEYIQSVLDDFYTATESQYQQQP

[21] = biological target: T20, SRPK3 (Homo sapiens, UniProt Q9UPE1); format: binding; settings: read-out: Percent Control
T20 construct: purchased Eurofins DiscoverX KINOMEscan (scanMAX 468)

[22] = biological target: T21, NEK7 (Homo sapiens, UniProt Q8TDX7); format: binding; settings: read-out: Percent Control
T21 construct: purchased Eurofins DiscoverX KINOMEscan (scanMAX 468)

[23] = biological target: T22, MAST1 (Homo sapiens, UniProt Q9Y2H9); format: binding; settings: read-out: Percent Control
T22 construct: purchased Eurofins DiscoverX KINOMEscan (scanMAX 468)
T22 sequence (Q9Y2H9 whole entry): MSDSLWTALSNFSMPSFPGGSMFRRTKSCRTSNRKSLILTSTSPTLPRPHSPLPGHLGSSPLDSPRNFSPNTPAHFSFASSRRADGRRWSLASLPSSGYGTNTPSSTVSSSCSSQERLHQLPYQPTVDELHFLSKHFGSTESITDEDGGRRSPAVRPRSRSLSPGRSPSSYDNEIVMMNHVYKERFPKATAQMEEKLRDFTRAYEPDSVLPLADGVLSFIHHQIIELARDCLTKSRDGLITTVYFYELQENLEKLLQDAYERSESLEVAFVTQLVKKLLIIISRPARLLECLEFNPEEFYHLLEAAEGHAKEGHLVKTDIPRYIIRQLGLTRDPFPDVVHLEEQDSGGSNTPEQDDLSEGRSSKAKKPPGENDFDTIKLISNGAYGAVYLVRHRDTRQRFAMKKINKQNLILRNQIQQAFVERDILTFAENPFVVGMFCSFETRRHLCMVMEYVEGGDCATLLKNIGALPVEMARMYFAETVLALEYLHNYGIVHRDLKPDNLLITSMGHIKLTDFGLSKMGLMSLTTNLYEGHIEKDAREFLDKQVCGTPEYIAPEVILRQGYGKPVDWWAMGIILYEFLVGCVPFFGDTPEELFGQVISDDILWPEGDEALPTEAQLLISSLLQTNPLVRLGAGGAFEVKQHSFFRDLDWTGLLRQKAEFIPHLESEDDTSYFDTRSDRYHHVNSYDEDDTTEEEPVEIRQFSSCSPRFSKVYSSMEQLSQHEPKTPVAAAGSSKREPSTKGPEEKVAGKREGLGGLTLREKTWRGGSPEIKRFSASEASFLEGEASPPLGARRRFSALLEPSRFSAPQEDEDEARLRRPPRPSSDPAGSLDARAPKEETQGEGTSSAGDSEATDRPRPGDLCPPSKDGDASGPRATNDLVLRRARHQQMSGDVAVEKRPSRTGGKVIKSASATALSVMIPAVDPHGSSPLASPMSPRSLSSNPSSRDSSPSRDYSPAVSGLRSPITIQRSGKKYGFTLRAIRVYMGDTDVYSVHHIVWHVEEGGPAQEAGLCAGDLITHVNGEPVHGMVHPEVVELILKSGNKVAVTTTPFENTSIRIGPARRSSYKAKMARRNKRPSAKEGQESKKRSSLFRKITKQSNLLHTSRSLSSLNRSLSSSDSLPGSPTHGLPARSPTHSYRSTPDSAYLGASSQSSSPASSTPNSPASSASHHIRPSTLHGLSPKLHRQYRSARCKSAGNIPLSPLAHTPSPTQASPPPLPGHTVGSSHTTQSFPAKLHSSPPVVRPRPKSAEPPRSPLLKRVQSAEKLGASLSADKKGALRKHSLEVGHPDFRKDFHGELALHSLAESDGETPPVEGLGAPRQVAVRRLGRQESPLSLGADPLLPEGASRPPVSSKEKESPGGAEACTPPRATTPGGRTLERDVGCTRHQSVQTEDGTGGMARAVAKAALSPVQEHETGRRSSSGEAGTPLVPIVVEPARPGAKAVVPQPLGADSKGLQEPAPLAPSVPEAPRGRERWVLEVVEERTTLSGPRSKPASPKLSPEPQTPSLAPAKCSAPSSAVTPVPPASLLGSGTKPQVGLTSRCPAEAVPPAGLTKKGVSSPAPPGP

[24] = biological target: T23, ERK3 (Homo sapiens, UniProt Q16659); format: binding; settings: read-out: Percent Control
T23 construct: purchased Eurofins DiscoverX KINOMEscan (scanMAX 468)

[25] = biological target: T24, PIP5K1C (Homo sapiens, UniProt O60331); format: binding; settings: read-out: Percent Control
T24 construct: purchased Eurofins DiscoverX KINOMEscan (scanMAX 468)

[26] = biological target: T25, MLK2 (Homo sapiens, UniProt Q02779); format: binding; settings: read-out: Percent Control
T25 construct: purchased Eurofins DiscoverX KINOMEscan (scanMAX 468)

[27] = biological target: T26, MAP4K2 (Homo sapiens, UniProt Q12851); format: binding; settings: read-out: Percent Control
T26 construct: purchased Eurofins DiscoverX KINOMEscan (scanMAX 468)

[28] = biological target: T27, PIM2 (Homo sapiens, UniProt Q9P1W9); format: binding; settings: read-out: Percent Control
T27 construct: purchased Eurofins DiscoverX KINOMEscan (scanMAX 468)

[29] = biological target: T28, PCTK3 (Homo sapiens, UniProt Q07002); format: binding; settings: read-out: Percent Control
T28 construct: purchased Eurofins DiscoverX KINOMEscan (scanMAX 468)

[30] = test system: FLT3(ITD,D835V); format: binding, human; settings: 1 μM
[31] = biological target: T29, PKNB(M.tuberculosis) (Mycobacterium tuberculosis, UniProt P9WI81); format: binding; settings: read-out: Percent Control
T29 construct: purchased Eurofins DiscoverX KINOMEscan (scanMAX 468)
T29 sequence (P9WI81 whole entry): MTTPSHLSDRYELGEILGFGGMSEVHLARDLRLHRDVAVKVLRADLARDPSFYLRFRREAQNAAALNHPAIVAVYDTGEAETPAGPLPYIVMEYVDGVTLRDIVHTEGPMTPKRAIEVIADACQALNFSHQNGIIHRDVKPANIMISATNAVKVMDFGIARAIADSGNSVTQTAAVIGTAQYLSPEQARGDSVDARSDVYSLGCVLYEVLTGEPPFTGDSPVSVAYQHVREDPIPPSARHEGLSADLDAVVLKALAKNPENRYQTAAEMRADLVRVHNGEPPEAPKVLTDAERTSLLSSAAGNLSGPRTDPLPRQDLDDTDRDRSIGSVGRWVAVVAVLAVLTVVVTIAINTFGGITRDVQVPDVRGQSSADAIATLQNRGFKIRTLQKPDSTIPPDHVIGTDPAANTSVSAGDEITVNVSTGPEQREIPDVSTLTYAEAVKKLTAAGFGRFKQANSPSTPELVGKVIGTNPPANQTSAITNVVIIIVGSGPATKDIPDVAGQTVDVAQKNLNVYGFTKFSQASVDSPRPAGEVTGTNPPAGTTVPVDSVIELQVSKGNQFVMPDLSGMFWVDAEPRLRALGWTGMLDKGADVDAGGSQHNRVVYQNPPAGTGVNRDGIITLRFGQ

[32] = biological target: T30, p38-delta (Homo sapiens, UniProt O15264); format: binding; settings: read-out: Percent Control
T30 construct: purchased Eurofins DiscoverX KINOMEscan (scanMAX 468)

[33] = biological target: T31, CAMKK2 (Homo sapiens, UniProt Q96RR4); format: binding; settings: read-out: Percent Control
T31 construct: purchased Eurofins DiscoverX KINOMEscan (scanMAX 468)

[34] = biological target: T32, CDK4-cyclinD3 (Homo sapiens, UniProt P11802); format: binding; settings: read-out: Percent Control
T32 construct: purchased Eurofins DiscoverX KINOMEscan (scanMAX 468)

[35] = biological target: T33, LIMK1 (Homo sapiens, UniProt P53667); format: binding; settings: read-out: Percent Control
T33 construct: purchased Eurofins DiscoverX KINOMEscan (scanMAX 468)

[36] = biological target: T34, PYK2 (Homo sapiens, UniProt Q14289); format: binding; settings: read-out: Percent Control
T34 construct: purchased Eurofins DiscoverX KINOMEscan (scanMAX 468)

[37] = biological target: T35, BRAF (Homo sapiens, UniProt P15056); format: binding; settings: read-out: Percent Control
T35 construct: purchased Eurofins DiscoverX KINOMEscan (scanMAX 468)

[38] = biological target: T36, LOK (Homo sapiens, UniProt O94804); format: binding; settings: read-out: Percent Control
T36 construct: purchased Eurofins DiscoverX KINOMEscan (scanMAX 468)

[39] = biological target: T37, DRAK1 (Homo sapiens, UniProt Q9UEE5); format: binding; settings: read-out: Percent Control
T37 construct: purchased Eurofins DiscoverX KINOMEscan (scanMAX 468)

[40] = biological target: T38, ABL1(H396P)-nonphosphorylated (Homo sapiens, UniProt P00519, H396P); format: binding; settings: read-out: Percent Control
T38 construct: purchased Eurofins DiscoverX KINOMEscan (scanMAX 468)

[41] = biological target: T39, SgK110 (Homo sapiens, UniProt P0C264); format: binding; settings: read-out: Percent Control
T39 construct: purchased Eurofins DiscoverX KINOMEscan (scanMAX 468)
T39 sequence (P0C264 whole entry): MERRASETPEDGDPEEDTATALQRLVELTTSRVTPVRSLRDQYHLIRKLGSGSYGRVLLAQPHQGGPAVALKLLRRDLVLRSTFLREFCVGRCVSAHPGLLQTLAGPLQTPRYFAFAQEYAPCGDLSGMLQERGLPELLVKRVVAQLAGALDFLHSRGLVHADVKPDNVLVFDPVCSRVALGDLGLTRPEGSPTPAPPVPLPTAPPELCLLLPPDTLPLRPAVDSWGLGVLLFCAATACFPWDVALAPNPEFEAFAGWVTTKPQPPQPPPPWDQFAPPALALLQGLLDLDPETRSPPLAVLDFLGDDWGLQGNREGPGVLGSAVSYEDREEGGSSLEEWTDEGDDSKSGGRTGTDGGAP

[42] = biological target: T40, PRKCE (Homo sapiens, UniProt Q02156); format: binding; settings: read-out: Percent Control
T40 construct: purchased Eurofins DiscoverX KINOMEscan (scanMAX 468)

[43] = biological target: T41, RIOK2 (Homo sapiens, UniProt Q9BVS4); format: binding; settings: read-out: Percent Control
T41 construct: purchased Eurofins DiscoverX KINOMEscan (scanMAX 468)

[44] = biological target: T42, PRKCQ (Homo sapiens, UniProt Q04759); format: binding; settings: read-out: Percent Control
T42 construct: purchased Eurofins DiscoverX KINOMEscan (scanMAX 468)

Question: `Cc1ccc(-n2cc(COc3cccc4cnc(Nc5cccc(Cl)c5)nc34)nn2)c([N+](=O)[O-])c1` [DB18] was tested. Which remaining binding at 1 µM [1] did it give?
Answer: 98%

Question: And the remaining binding at 1 µM [2]?
Answer: 100%

Question: And the remaining binding at 1 µM [3]?
Answer: 93%

Question: And the remaining binding at 1 µM [4]?
Answer: 100%

Question: What about the remaining binding at 1 µM [5] of the same molecule?
Answer: 100%

Question: What about the remaining binding at 1 µM [6] of the same molecule?
Answer: 100%

Question: And the remaining binding at 1 µM [7]?
Answer: 100%

Question: And the remaining binding at 1 µM [8]?
Answer: 100%

Question: What about the remaining binding at 1 µM [9] of the same molecule?
Answer: 97%

Question: And the remaining binding at 1 µM [10]?
Answer: 100%

Question: What about the remaining binding at 1 µM [11] of the same molecule?
Answer: 100%

Question: What about the remaining binding at 1 µM [12] of the same molecule?
Answer: 99%

Question: And the remaining binding at 1 µM [13]?
Answer: 100%

Question: And the “Percent Control” value [14]?
Answer: 94 % Ctrl

Question: What about the remaining binding at 1 µM [15] of the same molecule?
Answer: 100%

Question: And the remaining binding at 1 µM [16]?
Answer: 86%

Question: What about the remaining binding at 1 µM [17] of the same molecule?
Answer: 88%

Question: And the remaining binding at 1 µM [18]?
Answer: 100%

Question: What about the remaining binding at 1 µM [19] of the same molecule?
Answer: 95%

Question: What about the remaining binding at 1 µM [20] of the same molecule?
Answer: 100%

Question: And the remaining binding at 1 µM [21]?
Answer: 100%

Question: What about the remaining binding at 1 µM [22] of the same molecule?
Answer: 85%

Question: And the remaining binding at 1 µM [23]?
Answer: 79%

Question: And the remaining binding at 1 µM [24]?
Answer: 100%

Question: And the remaining binding at 1 µM [25]?
Answer: 100%

Question: What about the remaining binding at 1 µM [26] of the same molecule?
Answer: 100%

Question: What about the remaining binding at 1 µM [27] of the same molecule?
Answer: 100%

Question: What about the remaining binding at 1 µM [28] of the same molecule?
Answer: 100%

Question: What about the remaining binding at 1 µM [29] of the same molecule?
Answer: 100%

Question: What about the “Percent Control” value [30] of the same molecule?
Answer: 53 % Ctrl

Question: What about the remaining binding at 1 µM [31] of the same molecule?
Answer: 97%

Question: And the remaining binding at 1 µM [32]?
Answer: 100%

Question: And the remaining binding at 1 µM [33]?
Answer: 100%

Question: And the remaining binding at 1 µM [34]?
Answer: 100%

Question: And the remaining binding at 1 µM [35]?
Answer: 100%

Question: And the remaining binding at 1 µM [36]?
Answer: 100%

Question: And the remaining binding at 1 µM [37]?
Answer: 93%

Question: What about the remaining binding at 1 µM [38] of the same molecule?
Answer: 100%

Question: What about the remaining binding at 1 µM [39] of the same molecule?
Answer: 100%

Question: What about the remaining binding at 1 µM [40] of the same molecule?
Answer: 96%

Question: What about the remaining binding at 1 µM [41] of the same molecule?
Answer: 85%

Question: What about the remaining binding at 1 µM [42] of the same molecule?
Answer: 100%

Question: And the remaining binding at 1 µM [43]?
Answer: 100%

Question: What about the remaining binding at 1 µM [44] of the same molecule?
Answer: 100%
